Measured values: the NIST ThermoML archive (doi:10.1016/j.jct.2008.03.007)

How the values were obtained:
[1] = 101.33 kPa, Liquid, Vibrating tube method
[2] = xn = mol fraction of the nth substance listed; conditions: 101 kPa, Liquid; for mass density: Vibrating tube method

CCCCCCCC[N+](C)(CCCCCCCC)CCCCCCCC.O=S(=O)([N-]S(=O)(=O)C(F)(F)F)C(F)(F)F
[1]
Conditions | mass density [kg/m3]
298.15 K | 1109.3
303.15 K | 1105.1
313.15 K | 1098.3

CCCCCCCC[N+](C)(CCCCCCCC)CCCCCCCC.O=S(=O)([N-]S(=O)(=O)C(F)(F)F)C(F)(F)F + CCCO
[2]
Conditions | mass density, 298.15 K [kg/m3] | mass density, 303.15 K [kg/m3] | mass density, 313.15 K [kg/m3] | speed of sound, 298.15 K [m/s]
x1 = 0.0736 | 919 | 915 | 907 | 1187.7
x1 = 0.1146 | 956 | 952 | 944 | 1178.1
x1 = 0.2152 | 1011 | 1006 | 999 | 1154.7
x1 = 0.3303 | 1045 | 1041 | 1033 | 1127.9
x1 = 0.4033 | 1059 | 1055 | 1047 | 1110.9
x1 = 0.524 | 1076 | 1072 | 1064 | 1082.8
x1 = 0.6682 | – | – | – | 1049.2
x1 = 0.6882 | 1091 | 1087 | 1080 | –
x1 = 0.7833 | 1098 | 1094 | 1087 | 1022.4
x1 = 0.8439 | 1102 | 1097 | 1090 | 1008.3
x1 = 0.9533 | 1107 | 1103 | 1096 | 982.9

CCCCCCCC[N+](C)(CCCCCCCC)CCCCCCCC.O=S(=O)([N-]S(=O)(=O)C(F)(F)F)C(F)(F)F + CCO
[2]
Conditions | mass density, 298.15 K [kg/m3] | mass density, 303.15 K [kg/m3] | mass density, 313.15 K [kg/m3] | speed of sound, 298.15 K [m/s]
x1 = 0.0484 | 896 | 896 | 883 | –
x1 = 0.1731 | 1005 | 1003 | 994 | 1116.1
x1 = 0.2728 | 1041 | 1036 | 1029 | 1098.8
x1 = 0.3353 | 1055 | 1050 | 1044 | 1087.9
x1 = 0.4286 | 1070 | 1063 | 1058 | 1071.6
x1 = 0.5145 | 1080 | 1072 | 1068 | 1056.6
x1 = 0.6307 | 1090 | 1082 | 1078 | 1036.4
x1 = 0.7338 | 1097 | 1090 | 1085 | 1018.4
x1 = 0.7774 | 1099 | 1092 | 1087 | 1010.8
x1 = 0.9393 | 1107 | – | – | –
x1 = 0.9493 | – | 1103 | 1096 | 980.8

CCCCCCCC[N+](C)(CCCCCCCC)CCCCCCCC.O=S(=O)([N-]S(=O)(=O)C(F)(F)F)C(F)(F)F + CO
[2]
Conditions | mass density, 298.15 K [kg/m3] | mass density, 303.15 K [kg/m3] | mass density, 313.15 K [kg/m3] | speed of sound, 298.15 K [m/s]
x1 = 0.0336 | – | – | – | 1097.8
x1 = 0.0781 | 958 | 954 | 940 | –
x1 = 0.1291 | 999 | 994 | 982 | 1085.4
x1 = 0.2125 | 1037 | 1031 | 1022 | 1074.5
x1 = 0.35 | 1068 | 1062 | 1055 | –
x1 = 0.4172 | 1077 | 1071 | 1064 | 1047.9
x1 = 0.5362 | 1089 | 1083 | 1076 | 1032.4
x1 = 0.6529 | 1097 | 1092 | 1085 | –
x1 = 0.6611 | – | – | – | 1016.1
x1 = 0.7084 | 1100 | 1095 | 1088 | 1010
x1 = 0.8522 | 1106 | 1102 | 1095 | 991.2
x1 = 0.9345 | 1108 | 1104 | 1097 | –

CCO [ethanol]
[1]
Conditions | mass density [kg/m3]
298.15 K | 785.5
303.15 K | 782
313.15 K | 773.7

CO [methanol]
[1]
Conditions | mass density [kg/m3]
298.15 K | 786
303.15 K | 783.4
313.15 K | 774.6

CCCO [propan-1-ol]
[1]
Conditions | mass density [kg/m3]
298.15 K | 799.4
303.15 K | 796.4
313.15 K | 788.6
